The values below are quoted from earlier work in publication PMC10893061, “Novel 2,5-Diketopiperazines with In Vitro Activities against Protozoan Parasites of Tropical Diseases” (Pharmaceuticals, 2024).

One series relates to P. falciparum. On the set-up: method as in PMID 14513908. To be noted: cited from earlier work.
The test system of series [1] is human and monkey cell lines. On the set-up: method as in PMID 14513908. To be noted: cited from earlier work.
The test system of series [2] is Plasmodium. Set-up: method as in PMID 33446930, PMID 33307212. To be noted: 30mg/(kg × day), 4-day suppressive test; cited from earlier work.
The test system of series [3] is Plasmodium. On the set-up: method as in PMID 33446930, PMID 33307212. The settings on record: read-out: IC50 plasmodicidal in vitro activity; cited from earlier work.
Series [4] has as its system Plasmodium. Set-up: method as in PMID 28223778. The settings on record: cited from earlier work.

Consider `CN1C(=O)C2(CO)NC(=O)C1(Cc1ccccc1)SSSS2` (centres unmarked) [1-demethylhyalodendrin tetrasulfide], for which, in the series with P. falciparum, the IC50 is 6.7 µM. The cytotoxicity result in series [1] is listed as “high cytotoxicity”. As for `CO[C@]1(CC(C)C)NC(=O)[C@](O)(Cc2ccccc2)NC1=O` [Diatretol], the “growth inhibition of the parasite in vivo” value in the series with Plasmodium [2] is recorded as “more than 50%”. In addition, the IC50 in the series with Plasmodium [3] is 0.6 µM.

In the case of `CC(C)C[C@@H]1NC(=O)[C@@H]2CCCN2C1=O` [Gancidin W], the “in vivo anti-malarial activity” value with Plasmodium [4] was “active, low-toxic”.
